Reference: US9169254B2, “Spiroimidazolone derivative” (Chugai Seiyaku Kabushiki Kaisha, priority 2009, dated 2015)

These compounds were tested against T1, human PTH1 receptor (Homo sapiens, UniProt Q03431) (assay: In vitro cAMP signal activity in HKRK-B7 cells (LLC-PK1 cells overexpressing the human PTH1 receptor)). Conditions: HKRK-B7 cells; compound at 1×10^−3 M; cAMP produced as percentage of that produced by hPTH(1-34) at 100 nM.
T1 sequence (Q03431 27-593): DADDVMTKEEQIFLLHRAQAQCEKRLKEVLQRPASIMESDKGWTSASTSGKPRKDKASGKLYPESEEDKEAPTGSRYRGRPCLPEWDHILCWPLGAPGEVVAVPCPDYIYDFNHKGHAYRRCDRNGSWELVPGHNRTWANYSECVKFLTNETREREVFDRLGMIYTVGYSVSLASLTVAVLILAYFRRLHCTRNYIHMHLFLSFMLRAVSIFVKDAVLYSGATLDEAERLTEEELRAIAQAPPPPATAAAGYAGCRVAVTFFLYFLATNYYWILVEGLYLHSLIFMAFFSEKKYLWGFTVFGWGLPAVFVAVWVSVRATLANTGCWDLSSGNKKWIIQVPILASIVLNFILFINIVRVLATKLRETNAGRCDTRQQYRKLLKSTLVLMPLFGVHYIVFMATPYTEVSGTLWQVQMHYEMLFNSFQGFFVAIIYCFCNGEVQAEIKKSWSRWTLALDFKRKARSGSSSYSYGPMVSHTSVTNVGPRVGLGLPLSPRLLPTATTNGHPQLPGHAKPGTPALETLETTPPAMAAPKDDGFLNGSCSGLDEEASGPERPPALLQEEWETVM
Type: cell-based

Row | Structure (SMILES) | cAMP production activity (%)
1 | CN(C)C(=O)CNc1ccc(CCS(=O)(=O)N2CCC3(CC2)N=C(C2CCCCC2)NC3=O)c(C(F)(F)F)c1 [Compound 270, 2-{4-[2-(2-cyclohexyl-4-oxo-1,3,8-triaza-spiro[4.5]dec-1-ene-8-sulfonyl)-ethyl]-3-trifluoromethyl-phenylamino}-N,N-dimethyl-acetamide] | 55%
2 | O=C(Nc1ccc(CCS(=O)(=O)N2CCC3(CC2)N=C(C2CCCCC2)NC3=O)c(C(F)(F)F)c1)C1CC1 [Compound 271, cyclopropanecarboxylic acid {4-[2-(2-cyclohexyl-4-oxo-1,3,8-triaza-spiro[4.5]dec-1-ene-8-sulfonyl)-ethyl]-3-trifluoromethyl-phenyl}-amide] | 57%
3 | CC(C)(C)OC(=O)NCc1ccc(CCS(=O)(=O)N2CCC3(CC2)N=C(C2CCCCC2)NC3=O)c(C(F)(F)F)c1 [Compound 272, {4-[2-(2-cyclohexyl-4-oxo-1,3,8-triaza-spiro[4.5]dec-1-ene-8-sulfonyl)-ethyl]-3-trifluoromethyl-benzyl}-carbamic acid tert-butyl ester] | 67%
4 | CN(C)C(=O)Nc1ccc(CCS(=O)(=O)N2CCC3(CC2)N=C(C2CCCCC2)NC3=O)c(C(F)(F)F)c1 [Compound 273, 3-{4-[2-(2-cyclohexyl-4-oxo-1,3,8-triaza-spiro[4.5]dec-1-ene-8-sulfonyl)-ethyl]-3-trifluoromethyl-phenyl}-1,1-dimethyl-urea] | 55%
5 | COC(=O)Nc1ccc(C)c(CCS(=O)(=O)N2CCC3(CC2)N=C(C2CCCCC2)NC3=O)c1 [Compound 274, {3-[2-(2-cyclohexyl-4-oxo-1,3,8-triaza-spiro[4.5]dec-1-ene-8-sulfonyl)-ethyl]-4-methyl-phenyl}-carbamic acid methyl ester] | 74%
6 | Cc1ccc(NCCO)cc1CCS(=O)(=O)N1CCC2(CC1)N=C(C1CCCCC1)NC2=O [Compound 275, 2-cyclohexyl-8-{2-[5-(2-hydroxy-ethylamino)-2-methyl-phenyl]-ethanesulfonyl}-1,3,8-triaza-spiro[4.5]dec-1-en-4-one] | 72%
7 | CC(=O)Nc1cccc(C)c1CCS(=O)(=O)N1CCC2(CC1)N=C(C1CCCCC1)NC2=O [Compound 276, N-{2-[2-(2-cyclohexyl-4-oxo-1,3,8-triaza-spiro[4.5]dec-1-ene-8-sulfonyl)-ethyl]-3-methyl-phenyl}-acetamide] | 63%
8 | Cc1ccccc1CCS(=O)(=O)N1CCC2(CC1)N=C(C1CCCCC1)NC2=O [Compound 277, 2-cyclohexyl-8-(2-o-tolyl-ethanesulfonyl)-1,3,8-triaza-spiro[4.5]dec-1-en-4-one] | 38%
9 | O=C(NCCO)Nc1ccc(CCS(=O)(=O)N2CCC3(CC2)N=C(C2CCCCC2)NC3=O)c(C(F)(F)F)c1 [Compound 278, 1-{4-[2-(2-cyclohexyl-4-oxo-1,3,8-triaza-spiro[4.5]dec-1-ene-8-sulfonyl)-ethyl]-3-trifluoromethyl-phenyl}-3-(2-hydroxy-ethyl)-urea] | 59%
10 | Cc1cc(OC[C@H](O)CO)cc(C)c1CCS(=O)(=O)N1CCC2(CC1)N=C(C1CCCCC1)NC2=O [Compound 279, 2-cyclohexyl-8-{2-[4-((R)-2,3-dihydroxy-propoxy)-2,6-dimethyl-phenyl]-ethanesulfonyl}-1,3,8-triaza-spiro[4.5]dec-1-en-4-one] | 67%
11 | O=C1NC(C2CCCCC2)=NC12CCN(S(=O)(=O)CCc1ccc(CCO)cc1)CC2 [Compound 280, 2-cyclohexyl-8-{2-[4-(2-hydroxy-ethyl)-phenyl]-ethanesulfonyl}-1,3,8-triaza-spiro[4.5]dec-1-en-4-one] | 57%
12 | Cc1cc(NCC2CNC(=O)O2)ccc1CCS(=O)(=O)N1CCC2(CC1)N=C(C1CCCCC1)NC2=O (stereo not shown) [Compound 281, 2-cyclohexyl-8-(2-{2-methyl-4-[(2-oxo-oxazolidin-5-ylmethyl)-amino]-phenyl}-ethanesulfonyl)-1,3,8-triaza-spiro[4.5]dec-1-en-4-one] | 92%
13 | CN(C)CCNC(=O)Cc1ccc(CCS(=O)(=O)N2CCC3(CC2)N=C(C2CCCCC2)NC3=O)cc1 [Compound 282, 2-{4-[2-(2-cyclohexyl-4-oxo-1,3,8-triaza-spiro[4.5]dec-1-ene-8-sulfonyl)-ethyl]-phenyl}-N-(2-dimethylamino-ethyl)-acetamide] | 29%
14 | Cc1cc(C(=O)N2CC(F)(F)C(F)(F)C2)ccc1CCS(=O)(=O)N1CCC2(CC1)N=C(C1CCCCC1)NC2=O [Compound 283, 2-cyclohexyl-8-{2-[2-methyl-4-(3,3,4,4-tetrafluoro-pyrrolidine-1-carbonyl)-phenyl]-ethanesulfonyl}-1,3,8-triaza-spiro[4.5]dec-1-en-4-one] | 63%
15 | Cc1cc(OCCC(O)CO)ccc1CCS(=O)(=O)N1CCC2(CC1)N=C(c1cccc(C(F)(F)F)c1)NC2=O (stereo not shown) [Compound 284, 8-{2-[4-(3,4-dihydroxy-butoxy)-2-methyl-phenyl]-ethanesulfonyl}-2-(3-trifluoromethyl-phenyl)-1,3,8-triaza-spiro[4.5]dec-1-en-4-one] | 82%
16 | Cc1cc(C(=O)N2CCC(O)CC2)ccc1CCS(=O)(=O)N1CCC2(CC1)N=C(c1cccc(OC(F)(F)F)c1)NC2=O [Compound 285, 8-{2-[4-(4-hydroxy-piperidine-1-carbonyl)-2-methyl-phenyl]-ethanesulfonyl}-2-(3-trifluoromethoxy-phenyl)-1,3,8-triaza-spiro[4.5]dec-1-en-4-one] | 65%
17 | O=C1NC(c2cccc(C(F)(F)F)c2)=NC12CCN(S(=O)(=O)CCc1ccc(NCCO)cc1C(F)(F)F)CC2 [Compound 286, 8-{2-[4-(2-hydroxy-ethylamino)-2-trifluoromethyl-phenyl]-ethanesulfonyl}-2-(3-trifluoromethyl-phenyl)-1,3,8-triaza-spiro[4.5]dec-1-en-4-one] | 54%
18 | Cc1cc(S(=O)(=O)NCCCCO)ccc1CCS(=O)(=O)N1CCC2(CC1)N=C(c1cccc(OC(F)(F)F)c1)NC2=O [Compound 287, N-(4-hydroxy-butyl)-3-methyl-4-{2-[4-oxo-2-(3-trifluoromethoxy-phenyl)-1,3,8-triaza-spiro[4.5]dec-1-ene-8-sulfonyl]-ethyl}-benzenesulfonamide] | 58%
19 | Cc1cc(C(=O)N2CCCC2)ccc1CCS(=O)(=O)N1CCC2(CC1)N=C(c1cccc(C(F)(F)F)c1)NC2=O [Compound 288, 8-{2-[2-methyl-4-(pyrrolidine-1-carbonyl)-phenyl]-ethanesulfonyl}-2-(3-trifluoromethyl-phenyl)-1,3,8-triaza-spiro[4.5]dec-1-en-4-one] | 82%
20 | Cc1cc(C(=O)N2CCN(C)CC2)ccc1CCS(=O)(=O)N1CCC2(CC1)N=C(c1cccc(C(F)(F)F)c1)NC2=O [Compound 289, 8-{2-[2-methyl-4-(4-methyl-piperazine-1-carbonyl)-phenyl]-ethanesulfonyl}-2-(3-trifluoromethyl-phenyl)-1,3,8-triaza-spiro[4.5]dec-1-en-4-one] | 99%
21 | Cc1cc(S(=O)(=O)NCC(F)(F)F)ccc1CCS(=O)(=O)N1CCC2(CC1)N=C(c1cccc(C(F)(F)F)c1)NC2=O [Compound 290, 3-methyl-4-{2-[4-oxo-2-(3-trifluoromethyl-phenyl)-1,3,8-triaza-spiro[4.5]dec-1-ene-8-sulfonyl]-ethyl}-N-(2,2,2-trifluoro-ethyl)-benzenesulfonamide] | 76%
22 | Cc1cc(S(N)(=O)=O)ccc1CCS(=O)(=O)N1CCC2(CC1)N=C(c1cccc(C(F)(F)F)c1)NC2=O [Compound 291, 3-methyl-4-{2-[4-oxo-2-(3-trifluoromethyl-phenyl)-1,3,8-triaza-spiro[4.5]dec-1-ene-8-sulfonyl]-ethyl}-benzenesulfonamide] | 66%
23 | Cc1cc(S(=O)(=O)NCCN2CCOCC2)ccc1CCS(=O)(=O)N1CCC2(CC1)N=C(c1cccc(C(F)(F)F)c1)NC2=O [Compound 292, 3-methyl-N-(2-morpholin-4-yl-ethyl)-4-{2-[4-oxo-2-(3-trifluoromethyl-phenyl)-1,3,8-triaza-spiro[4.5]dec-1-ene-8-sulfonyl]-ethyl}-benzenesulfonamide] | 58%
24 | CN(C)C(=O)c1ccc(CCS(=O)(=O)N2CCC3(CC2)N=C(c2cccc(OC(F)(F)F)c2)NC3=O)c(F)c1 [Compound 293, 3-fluoro-N,N-dimethyl-4-{2-[4-oxo-2-(3-trifluoromethoxy-phenyl)-1,3,8-triaza-spiro[4.5]dec-1-ene-8-sulfonyl]-ethyl}-benzamide] | 38%
25 | Cc1cc(S(=O)(=O)Nc2cccnc2)ccc1CCS(=O)(=O)N1CCC2(CC1)N=C(c1cccc(C(F)(F)F)c1)NC2=O [Compound 294, 3-methyl-4-{2-[4-oxo-2-(3-trifluoromethyl-phenyl)-1,3,8-triaza-spiro[4.5]dec-1-ene-8-sulfonyl]-ethyl}-N-pyridin-3-yl-benzenesulfonamide] | 106%
